In PMC8373983, “Effect of salinity on the zinc(II) binding efficiency of siderophore functional groups and implications for salinity tolerance mechanisms in barley” (Scientific Reports, 2021):

How the values were obtained:
[1] = Ligand protonation constants, potentiometric titration in NaCl; type: physicochemical; conditions: T = 298.1 K
Description: (§1) Potentiometric measurements were carried out at T = 298.1 ± 0.1 K in thermostatted cells. The setup consisted of a Metrohm model 888 Titrando apparatus controlled by Metrohm TiAMO 1.2 software equipped with a combined gel electrode (VWR model 662 1759). Estimated precision was 0.2 mV and 0.003 ml for the electromotive force and titrant volume readings, respectively. All the potentiometric titrations were carried out under magnetic stirring and bubbling purified presaturated N2 through the solution to exclude O2 and CO2.
(§2) A 30 ml solution containing each ligand ([L] = 5 – 10 mM), NaCl and HCl was titrated with standard NaOH solutions. For the zinc(II)/ligand systems, the titrant solutions consisted of different amounts of ligand ([L] = 5 − 10 mM), zinc(II) ([Zn] = 0.5—5 mM) and a suitable amount of HCl and NaCl. All the measurements were carried out with an excess of the ligand, with respect to zinc(II) and at different zinc(II):ligand molar ratios. The selection of ratios investigated was determined by simulating titrations using Hyperquad Simulation and Speciation computer software (HySS)[41]. [Zn] and [L] were negligible compared to the background electrolyte concentrations. […] To account for the influence of zinc(II) hydrolysis in the zinc(II)/ligand systems, zinc(II) titrations were carried out separately at each ionic strength to determine the hydroxide constants so that these constants could be included in the equilibrium model used to refine the titration data. In these titrations, the zinc(II) concentration in the analyte solution was 0.7 mM.
(§3) Before each experiment, independent titrations of strong acid solutions with standard base were carried out under the same medium and ionic strength conditions as the systems to be investigated, with the aim of determining the electrode potential (E^0’) using GLEE software. In this way, the pH scale used was the […], pH = -log [H]^+, where [H]^+ is the free proton concentration. For each titration, approximately 80 to 100 data points were collected. The equilibrium state during titrations was checked by confirming the time required to reach equilibrium.
(§4) The software program Hyperquad was used to determine the equilibrium model and to calculate pKa and stability constants from the potentiometric data set[43]. For each set of pKa constants or zinc(II):ligand ratio studied, at least two repeat titrations were performed. The titration curves for each system were treated as a single set when refining the stability constants. This meant that the refinement procedure was run on both curves at the same time to derive a single set of constants. The error reported on the stability constants is the standard deviation given in the Hyperquad output file. Examples of Hyperquad files for the zinc(II)/PYR system are provided on the Zenodo repository (https://doi.org/10.5281/zenodo.4641710).
(§5) The ionic strength dependence of the stability constants was studied with the modified version of the Extended Debye–Hückel equation[28]. The Monte Carlo method, as described by Hu et al.[43], was used to estimate 95% confidence intervals on the parameters of ionic strength dependence; for each species, predicted stability constants were resampled using an inverse of the cumulative normal distribution function to give sets of simulated data from which the unknown parameters were optimized. An example Excel calculation file for the application of the modified version of the Extended Debye–Hückel equation to the zinc(II)/PYR system (including the calculation of error on parameters of ionic strength dependence) has been uploaded to the Zenodo repository (https://doi.org/10.5281/zenodo.4641710).
(§6) To quantify the improvement of using a direct vs. indirect method for studying ionic strength dependence, the Davies equation (Eq. 3) was applied to the zinc(II)/PYR data. Speciation calculations for a [Zn] = 10^–6 M and [L] = 10^–5 M system at infinite dilution were conducted with the aid of HySS. […]

[2] = Zinc(II)-ligand stability constants, potentiometric titration in NaCl; type: binding
Description: as §1, §2, §3, §4, §5, §6

[3] = parameter of ionic strength dependence, NaCl

## CC(=O)NO [AHA, acetohydroxamic acid]
[1]; 0.05 M NaCl
  log β, H+ + L = HL: 9.28 ± 0.01
[1]; 0.15 M NaCl
  log β, H+ + L = HL: 9.06 ± 0.01
[1]; 0.30 M NaCl
  log β, H+ + L = HL: 9.10 ± 0.01
[1]; 0.70 M NaCl
  log β, H+ + L = HL: 9.04 ± 0.01
[1]; 1.00 M NaCl
  log β, H+ + L = HL: 9.07 ± 0.01
[1]; intrinsic, modified Extended Debye–Hückel fit (direct)
  logβ^0, H+ + L = HL: 9.376 ± 0.001
[1]; [3]
  C, H+ + L = HL: 0.085 ± 0.001
[2]; 0.05 M NaCl, T = 298.1 K
  log β, Zn2+ + 2L = ZnL2: 9.60±0.01
  log β, Zn2+ + 2OH- + L- = ZnOH2L-: -13.60±0.04
  log β, Zn2+ + L = ZnL (1:1): 5.32±0.01
  log β, Zn2+ + OH- + L- = ZnOHL: -3.22±0.04
[2]; 0.15 M NaCl, T = 298.1 K
  log β, Zn2+ + 2L = ZnL2: 9.16±0.01
  log β, Zn2+ + 2OH- + L- = ZnOH2L-: -13.65±0.01
  log β, Zn2+ + L = ZnL (1:1): 5.10±0.01
  log β, Zn2+ + OH- + L- = ZnOHL: -3.64±0.02
[2]; 0.30 M NaCl, T = 298.1 K
  log β, Zn2+ + 2L = ZnL2: 9.11±0.01
  log β, Zn2+ + 2OH- + L- = ZnOH2L-: -13.21±0.07
  log β, Zn2+ + L = ZnL (1:1): 5.01±0.03
  log β, Zn2+ + OH- + L- = ZnOHL: -4.22±0.08
[2]; 0.70 M NaCl, T = 298.1 K
  log β, Zn2+ + 2L = ZnL2: 8.79±0.01
  log β, Zn2+ + 2OH- + L- = ZnOH2L-: -14.07±0.02
  log β, Zn2+ + L = ZnL (1:1): 4.87±0.01
  log β, Zn2+ + OH- + L- = ZnOHL: -4.07±0.02
[2]; 1:1 zinc(II) complex
  stability of the 1:1 zinc(II) species below/above the equivalent PYR and GLY complexes: 3.5–4 logβ units
[2]; 1.00 M NaCl, T = 298.1 K
  log β, Zn2+ + 2L = ZnL2: 8.79±0.01
  log β, Zn2+ + 2OH- + L- = ZnOH2L-: -13.96±0.01
  log β, Zn2+ + L = ZnL (1:1): 4.82±0.01
  log β, Zn2+ + OH- + L- = ZnOHL: -4.41±0.04
[2]; between 0.00 and 1.00 M NaCl
  decrease of the 1:1 zinc(II) stability constant: 0.79 logβ units
[2]; between 0.05 and 1.00 M NaCl
  decrease of the 1:1 zinc(II) stability constant: 14%
[2]; intrinsic, modified Extended Debye–Hückel fit (direct), T = 298.1 K
  logβ0, Zn2+ + 2L = ZnL2: 10.021±0.001
[2]; [3]
  C, Zn2+ + 2L = ZnL2: -0.052±0.002
  C, Zn2+ + 2OH- + L- = ZnOH2L-: 0.571±0.017
  C, Zn2+ + OH- + L- = ZnOHL: 1.2095±0.027
